Source: ChEMBL document CHEMBL5550160, “Leveraging a rationally designed veliparib-based anilide eliciting anti-leukemic effects for the design of pH-responsive polymer nanoformulation” (Eur J Med Chem, 2024)
Calls of active or inactive are those of the source. No cut-off for these calls is given here.

Experiments:
[1] = target: T1, Protein deacetylase HDAC6 (Homo sapiens) (UniProt Q9UBN7); assay: Inhibition of HDAC6 (unknown origin) using p53 residues 379 to 382 [RHKK(Ac)] as fluorogenic substrate assessed as residual activity at 1 x 10^-5M (reference value: 101.06%); details: dose 1.0 10^-5M
T1 sequence (whole entry): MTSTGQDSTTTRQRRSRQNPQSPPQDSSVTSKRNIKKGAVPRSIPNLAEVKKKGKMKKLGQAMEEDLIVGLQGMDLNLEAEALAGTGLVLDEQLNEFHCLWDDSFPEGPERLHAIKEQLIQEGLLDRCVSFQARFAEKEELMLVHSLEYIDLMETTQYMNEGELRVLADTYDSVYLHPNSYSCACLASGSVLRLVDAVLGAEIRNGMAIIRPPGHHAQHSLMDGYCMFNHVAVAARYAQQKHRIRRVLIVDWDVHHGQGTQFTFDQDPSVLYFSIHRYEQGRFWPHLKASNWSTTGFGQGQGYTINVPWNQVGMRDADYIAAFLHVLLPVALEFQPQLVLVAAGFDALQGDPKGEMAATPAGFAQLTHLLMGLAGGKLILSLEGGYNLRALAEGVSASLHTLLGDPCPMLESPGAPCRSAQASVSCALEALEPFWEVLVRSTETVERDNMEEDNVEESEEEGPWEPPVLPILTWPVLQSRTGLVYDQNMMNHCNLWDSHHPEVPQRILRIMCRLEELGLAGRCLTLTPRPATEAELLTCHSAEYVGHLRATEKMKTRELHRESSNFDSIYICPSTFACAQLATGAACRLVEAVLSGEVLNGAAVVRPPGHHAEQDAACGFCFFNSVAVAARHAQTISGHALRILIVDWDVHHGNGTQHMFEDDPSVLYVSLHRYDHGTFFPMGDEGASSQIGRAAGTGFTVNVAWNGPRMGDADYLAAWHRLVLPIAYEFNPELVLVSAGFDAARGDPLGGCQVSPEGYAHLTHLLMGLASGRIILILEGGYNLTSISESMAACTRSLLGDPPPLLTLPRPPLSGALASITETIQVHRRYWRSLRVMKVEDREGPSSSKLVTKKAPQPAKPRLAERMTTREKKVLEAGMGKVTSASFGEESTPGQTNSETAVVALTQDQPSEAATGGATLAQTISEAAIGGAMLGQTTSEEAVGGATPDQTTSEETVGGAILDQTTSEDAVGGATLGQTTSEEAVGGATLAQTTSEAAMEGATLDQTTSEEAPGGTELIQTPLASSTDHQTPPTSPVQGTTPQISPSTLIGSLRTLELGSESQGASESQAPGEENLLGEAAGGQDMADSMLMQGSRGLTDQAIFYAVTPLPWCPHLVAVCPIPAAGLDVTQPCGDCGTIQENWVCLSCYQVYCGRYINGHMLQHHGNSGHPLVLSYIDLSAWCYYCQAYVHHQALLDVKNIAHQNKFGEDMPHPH

[2] = target: Histone deacetylase 2 (Homo sapiens, UniProt Q92769); assay: Inhibition of HDAC2 (unknown origin) assessed as residual activity at 1.23 x 10^-7M (reference value: 99.81%); details: dose 1.23 10^-7M
Sequence of Histone deacetylase 2 (Q92769 whole entry, the tested form may be a part): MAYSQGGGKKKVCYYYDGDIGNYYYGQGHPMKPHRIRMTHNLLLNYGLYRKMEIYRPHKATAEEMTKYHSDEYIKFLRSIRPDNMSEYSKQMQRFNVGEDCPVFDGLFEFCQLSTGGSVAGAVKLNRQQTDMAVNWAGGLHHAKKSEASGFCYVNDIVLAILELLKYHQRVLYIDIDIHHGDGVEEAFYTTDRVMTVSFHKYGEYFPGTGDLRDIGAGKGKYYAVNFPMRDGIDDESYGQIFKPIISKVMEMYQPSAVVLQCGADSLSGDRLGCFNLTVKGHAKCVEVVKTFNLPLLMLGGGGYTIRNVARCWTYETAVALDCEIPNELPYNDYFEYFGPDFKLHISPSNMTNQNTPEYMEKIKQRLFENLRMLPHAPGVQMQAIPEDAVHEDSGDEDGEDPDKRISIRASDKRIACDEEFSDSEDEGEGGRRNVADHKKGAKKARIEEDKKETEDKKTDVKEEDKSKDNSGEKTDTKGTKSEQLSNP

[3] = target: Histone deacetylase 3 (Homo sapiens, UniProt O15379); assay: Inhibition of HDAC3 (unknown origin) using p53 residues 379 to 382 [RHKK(Ac)] as fluorogenic substrate assessed as residual activity at 4.57 x 10^-9M (reference value: 103.08%); details: dose 4.57 10^-9M
Sequence of Histone deacetylase 3 (O15379 whole entry, the tested form may be a part): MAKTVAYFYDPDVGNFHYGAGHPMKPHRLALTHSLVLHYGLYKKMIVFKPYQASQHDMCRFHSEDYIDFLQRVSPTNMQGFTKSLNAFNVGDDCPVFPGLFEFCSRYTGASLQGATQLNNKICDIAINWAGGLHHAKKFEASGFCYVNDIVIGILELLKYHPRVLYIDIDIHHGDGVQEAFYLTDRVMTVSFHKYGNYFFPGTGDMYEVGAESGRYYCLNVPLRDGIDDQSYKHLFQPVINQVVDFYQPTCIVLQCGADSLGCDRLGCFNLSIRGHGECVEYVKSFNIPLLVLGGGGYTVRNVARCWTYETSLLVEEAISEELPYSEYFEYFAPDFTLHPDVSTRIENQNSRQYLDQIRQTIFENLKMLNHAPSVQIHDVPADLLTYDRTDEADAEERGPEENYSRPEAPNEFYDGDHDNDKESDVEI

[4] = target: Histone deacetylase 9 (Homo sapiens) (UniProt Q9UKV0); assay: Inhibition of HDAC9 (unknown origin) assessed as residual activity at 4.12 x 10^-8M (reference value: 97.55%); details: dose 4.12 10^-8M
Sequence of Histone deacetylase 9 (Homo sapiens) (Q9UKV0 whole entry): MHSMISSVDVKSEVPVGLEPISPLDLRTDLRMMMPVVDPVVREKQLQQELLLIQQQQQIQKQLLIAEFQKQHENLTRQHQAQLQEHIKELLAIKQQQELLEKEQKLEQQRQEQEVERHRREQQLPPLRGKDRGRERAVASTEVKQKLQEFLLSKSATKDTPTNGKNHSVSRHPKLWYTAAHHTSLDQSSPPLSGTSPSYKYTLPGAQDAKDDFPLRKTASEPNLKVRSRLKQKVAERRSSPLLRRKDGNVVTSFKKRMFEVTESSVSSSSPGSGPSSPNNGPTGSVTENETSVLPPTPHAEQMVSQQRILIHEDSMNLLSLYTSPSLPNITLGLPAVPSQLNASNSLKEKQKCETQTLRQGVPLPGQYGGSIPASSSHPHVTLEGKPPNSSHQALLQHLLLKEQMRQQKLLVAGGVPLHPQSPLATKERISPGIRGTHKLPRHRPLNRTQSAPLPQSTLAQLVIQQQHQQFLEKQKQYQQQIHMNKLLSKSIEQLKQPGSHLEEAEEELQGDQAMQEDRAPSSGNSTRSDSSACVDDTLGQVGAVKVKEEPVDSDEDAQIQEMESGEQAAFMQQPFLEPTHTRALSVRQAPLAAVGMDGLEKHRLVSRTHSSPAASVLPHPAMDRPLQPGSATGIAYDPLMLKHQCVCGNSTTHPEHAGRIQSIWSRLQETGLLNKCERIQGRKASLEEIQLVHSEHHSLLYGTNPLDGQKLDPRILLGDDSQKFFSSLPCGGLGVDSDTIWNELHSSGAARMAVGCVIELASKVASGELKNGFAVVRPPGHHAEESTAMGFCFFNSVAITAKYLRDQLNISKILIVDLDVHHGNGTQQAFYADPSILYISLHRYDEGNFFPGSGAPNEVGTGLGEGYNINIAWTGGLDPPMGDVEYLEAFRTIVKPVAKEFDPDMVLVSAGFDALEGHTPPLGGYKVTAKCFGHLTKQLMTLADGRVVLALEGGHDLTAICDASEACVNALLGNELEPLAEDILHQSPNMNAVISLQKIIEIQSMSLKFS

[5] = system: HL-60; assay: Downregulation of HDAC3 protein expression in human HL-60 cells by Western blot analysis; assay type: functional, cell-based; details: dose 0.2-5 µM
[6] = system: HL-60; assay: Induction of apoptosis in human HL-60 cells assessed as cell shrinkage at 0.5 to 1 times IC50 by DAPI staining based microscopic analysis; assay type: functional

- Activity [1]: 107%
- Activity [2]: 56.5%
- Activity [3]: 111%
- Activity [4]: 102%
SMILES: NC(=O)c1cccc2[nH]c(-c3ccc(NCc4ccc(C(=O)Nc5ccccc5N)cc4)cc3)nc12
- Activity [5]: Dose-Dependent Effect
- Activity [6]: inactive
